Data from patent US5962487A, “Antipicornaviral compounds and methods for their use and preparation” (Agouron Pharmaceuticals, Inc., priority 1997, dated 1999).

Tests used:
[1] = in vitro; format: cell-based; conditions: human, hi-hela cells
Experimental: (§1) HI-HeLa cells were infected with HRV-14 (unless otherwise noted) at a multiplicity of infection (m.o.i.) of 0.13 (virus particles/cell) or mock-infected with medium only. Infected or mock-infected cells were resuspended at 8×10^5 cells per mL and incubated with appropriate concentrations of compounds of formulas I and II. Two days later, XTT/PMS was added to test plates, and the amount of formazan produced was quantified spectrophotometrically at 450/650 nm. The EC50 was calculated as the concentration of compound that increased the percentage of formazan production in compound-treated, virus-infected cells to 50% of that produced by compound-free mock-infected cells. The 50% cytotoxic dose (CC50) was calculated as the concentration of compound that decreased the percentage of formazan produced in compound-treated, mock-infected cells to 50% of that produced in compound-free, mock-infected cells. The therapeutic index (TI) was calculated by dividing the CC50 by the EC50.
(§2) All strains of human rhinovims (HRV) for use in this assay were purchased from American Type Culture Collection (ATCC), except for HRV serotype-14, which was produced from the infectious cDNA clone, constructed and supplied to us by Dr. Roland Rueckert at the Institute for Molecular Virology, University of Wisconsin, Madison, Wis. HRV stocks were propagated, and antiviral assays were performed in HI-HeLa (ATCC). Cells were grown in Minimal Essential Medium, available from Life Technologies, with 10% fetal bovine serum.

[2] = molecular target: T1, Rhinovirus 3C protease (RVP) serotype-14 (Human rhinovirus 14, UniProt P03303); assay: Inhibition of Rhinovirus Protease, serotype 14 (FRET assay); format: biochemical; conditions: for Ki: 10 minute preincubation with 50 nM RVP prior to addition of substrate, read-out: INHIB (Ki); for kinact/KI: read-out: kobs/I
T1 construct: Recombinant Rhinovirus 3C proteases from serotypes 14, 16, 2 or 89 were prepared; made in house
T1 sequence (P03303 1538-1719): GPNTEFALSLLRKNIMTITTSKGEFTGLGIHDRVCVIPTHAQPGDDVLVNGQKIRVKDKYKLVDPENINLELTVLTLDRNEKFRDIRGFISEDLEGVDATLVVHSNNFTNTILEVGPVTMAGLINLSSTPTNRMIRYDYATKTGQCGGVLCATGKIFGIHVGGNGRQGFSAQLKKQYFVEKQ
Experimental: Stock solutions (50 mM, in DMSO) of various compounds were prepared; dilutions were in the same solvent. Recombinant Rhinovirus 3C proteases from serotypes 14, 16, 2 or 89 were prepared by the following standard chromatographic procedures: (1) ion exchange using Q Sepharose Fast Flow from Pharmacia; (2) affinity chromatography using Affi-Gel Blue from Biorad; and (3) sizing using Sephadex G-100 from Pharmacia. Assays contained 2% DMSO, 50 mM tris pH 7.6, 1 mM EDTA, a compound at the indicated concentrations, approximately 1 μM substrate, and 50-100 nM protease. For Ki determinations, the compound and the enzyme were preincubated for 10 minutes at 30° C. prior to addition of the substrate (substrate start). The kobs/I values were obtained from reactions initiated by addition of enzyme rather than substrate. RVP activity is measured in the fluorescence resonance energy transfer assay. The substrate was (N-terminal) DABCYL-(Gly-Arg-Ala-Val-Phe-Gln-Gly-Pro-Val-Gly)-EDANS. In the uncleaved peptide, the EDANS fluorescence was quenched by the proximal DABCYL moiety. When the peptide was cleaved, the quenching was relieved, and activity was measured as an increase in fluorescence signal.
In the above table, all data is for RVP serotype-14 unless otherwise noted in parentheses. All strains of human rhinovirus (HRV) were purchased from American Type Culture Collection (ATCC), except for serotype 14, which was produced from the infectious cDNA clone constructed and supplied to us by Dr. Roland Rueckert at the Institute for Molecular Virology, University of Wisconsin, Madison, Wis. The column designated INHIB represents the percent inhibition, with the concentration of the compound in μM indicated in parentheses, unless Ki was assigned as designated by (Ki), at 10 minute preincubation with 50 nM RVP prior to addition of substrate was used. The data in the column designated kobs/I was measured from progress curves in enzyme start experiments.

[3] = test system: HRV-14; assay: Antirhinoviral HI-HeLa Cell Culture Assay (cell protection, XTT), HRV-14; format: cell-based, human rhinovirus; conditions: for TI: CC50/EC50, HRV serotype-14, 2880 min; for EC50: Rhinovirus B, HRV14, 48 h, HRV serotype-14 infected HI-HeLa cells, XTT, two days
Experimental: In the Cell Protection Assay, the ability of compounds to protect cells against HRV infection was measured by the XTT dye reduction method. This method is described in O. S. Weislow, R. Kiser, D. L. Fine, J. Bader, R. H. Shoemaker, and M. R. Boyd, J. Natl. Cancer Inst. 1989, 81, 577-586, which document is entirely incorporated herein by reference.
as §1, §2
The compounds were tested against control compounds WIN 51711, WIN 52084, and WIN 54954, all obtained from Sterling-Winthrop Pharmaceuticals, and control compound Pirodavir, obtained from Janssen Pharmaceuticals. Antiviral data obtained for the test compounds are shown in Table 2 where all data are for HRV serotype-14 unless otherwise noted in parentheses.

| SMILES | CC50 at 48 h [1] [µM] | Ki ([2]; RVP serotype-14) [µM] | kinact/KI [2] [M⁻¹ s⁻¹] | TI [3] | EC50 [3] [µM] | inhibition at 10 µM ([2]; RVP serotype-14, 10 μM compound, 10 minute preincubation with 50 nM RVP, read-out: INHIB (percent inhibition)) [%] |
| --- | --- | --- | --- | --- | --- | --- |
| CC(C)C[C@H](NC(=O)OCc1ccccc1)C(=O)N1CCCC[C@H]1C(=O)N[C@H](/C=C/C(=O)N1CCCCO1)CCC(N)=O [Compound 26, 1-[1',2'-Oxazin-2'-yl]-3-(CBZ-L-Leu-L-Pip-L-Gln)-E-Propenone] | > 320 | 34 | 875 | > 5 | 56 | – |
| CCOC(=O)/C=C/[C@H](CCC(N)=O)NC(=O)Cn1c(-c2ccccc2)ncc(NC(=O)OCc2ccccc2)c1=O [Compound 30, Ethyl-3-([(5-CBZ-Amino)-2-Phenyl-6-Oxo-1,6-Dihydro-1-Pyrimidinyl]-L-Gln)-E-Propenoate] | 177 | 55 | 163 | 25 | 7.2 | – |
| CCOC(=O)/C=C/[C@H](CCC(N)=O)NC(=O)Cn1c(-c2ccccc2)ncc(N)c1=O [Compound 31, Ethyl-3-{[(5-Amino)-2-Phenyl-6Oxo-1,6-Dihydro-1-Pyrimidinyl]-L-Gln}-Propenoate] | > 320 | – | 39 | > 6 | 56 | – |
| CCOC(=O)/C=C/[C@H](CCC(N)=O)NC(=O)[C@H](Cc1ccccc1)n1cc[nH]c1=O [Compound 32, Ethyl-3-(L-N-[(1,3-Dihydro-imidazol-2-one)-Phe]-L-Gln)-E-Propenoate] | > 320 | – | 98 | > 2 | 158 | – |
| CCOC(=O)/C=C/[C@H](CCC(N)=O)NC(=O)[C@H](Cc1ccccc1)n1ccn(NC(=O)OCc2ccccc2)c1=O [Compound 33, Ethyl-3-(CBZ-amino-L-N-[(1,3-Dihydro-imidazol-2-one)-Phe]-L-Gln)-E-Propenoate] | > 320 | – | 361 | – | > 320 | 86 |
| CCOC(=O)/C=C/[C@H](CCC(N)=O)NC(=O)[C@H](Cc1ccccc1)N(C)C(=O)[C@H](CC(C)C)NC(=O)SC(C)C [Compound 38] | > 100 | – | 18200 | > 278 | 0.36 | – |
| CCOC(=O)/C(C)=C/[C@H](CCC(N)=O)NC(=O)[C@H](Cc1ccccc1)N(C)C(=O)[C@H](CC(C)C)NC(=O)SC(C)C [Compound 39] | 180 | – | 2330 | 113 | 1.6 | – |
| CCOC(=O)/C=C/[C@H](CCC(N)=O)NC(=O)[C@H](Cc1ccccc1)N(C)C(=O)[C@H](CC(C)C)NC(=O)SCC1CCCCC1 [Compound 40] | 45 | – | 12100 | 141 | 0.32 | – |
| CCOC(=O)/C(C)=C/[C@H](CCC(N)=O)NC(=O)[C@H](Cc1ccccc1)N(C)C(=O)[C@H](CC(C)C)NC(=O)SCC1CCCCC1 [Compound 41] | 18 | – | 2350 | 9 | 2 | – |
| CCOC(=O)/C=C/[C@H](CCC(N)=O)NC(=O)[C@H](Cc1ccccc1)N(C)C(=O)[C@H](CC(C)C)NC(=O)SC1CCCCC1 [Compound 42] | 50.1 | – | 15000 | 111 | 0.45 | – |
| CCOC(=O)/C(C)=C/[C@H](CCC(N)=O)NC(=O)[C@H](Cc1ccccc1)N(C)C(=O)[C@H](CC(C)C)NC(=O)SC1CCCCC1 [Compound 43] | 56.2 | – | 2200 | 16 | 3.5 | – |
| CCOC(=O)/C=C/[C@H](CCC(N)=O)NC(=O)[C@H](Cc1ccccc1)N(C)C(=O)[C@H](CC(C)C)NC(=O)SCC(C)C [Compound 44] | 56.2 | – | 12300 | 104 | 0.54 | – |
| CCOC(=O)/C(C)=C/[C@H](CCC(N)=O)NC(=O)[C@H](Cc1ccccc1)N(C)C(=O)[C@H](CC(C)C)NC(=O)SCC(C)C [Compound 45] | 56.2 | – | 2300 | 32 | 1.78 | – |
| CCOC(=O)/C=C/[C@H](CCC(N)=O)NC(=O)[C@H](Cc1ccccc1)N(C)C(=O)[C@H](CSc1ccccc1)NC(=O)SC1CCCC1 [Compound 46] | 18 | – | 36800 | 33 | 0.54 | – |
